# Test results as given in patent EP4810038A1, “METHOD FOR TREATING ALK-POSITIVE OR ROS1-POSITIVE NON-SMALL CELL LUNG CANCER” (Shenzhen TargetRx Co., Ltd., priority 2023, dated 2025).
# Several values for one entry are separate records, joined by “and”; a condition that tells them apart may be missing. Equal values may be shown once. Entries after “also recorded” stand apart in the source; their conditions may differ.
# Tested on: ALK-positive advanced NSCLC
# Experiment: Phase I clinical trial, indication expansion phase: efficacy in ALK-positive patients (group A cohort 1: prior crizotinib only; cohort 2: prior second-generation ALK inhibitor; group C: ALK inhibitor naive)
# Assay type: in vivo, human
# Procedure: The anti-tumor efficacy is evaluated according to RECIST version 1.1. For patients initially evaluated as having a complete response (CR) or partial response (PR), efficacy should be confirmed at least 4 weeks later. In the patients with asymptomatic central nervous system (CNS) metastases, in addition to evaluating 5 extracranial target lesions, up to 5 intracranial target lesions will also be evaluated. The specific indicators are as follows:
# "ORR" includes CR and PR, and is defined as the proportion of patients who achieve complete response or partial response.
# "IC-ORR" includes CR or PR for confirmed intracranial lesions, and is defined as the proportion of the patients with complete response or partial response of intracranial lesions among the patients with intracranial lesions.
# "DCR" is defined as the proportion of the patients who achieve response (PR+CR) and stable disease (SD) after a treatment.
# "IC-DCR" is defined as the proportion of the patients who achieve intracranial response (PR+CR), intracranial stable disease (SD), and […] after a treatment among the patients with intracranial lesions.
# "DOR" is defined as the time from the first assessment of CR or PR to progressive disease or death, and is only applicable to the patients who achieve response.
# "IC-DOR" is defined as the time from the first assessment of intracranial CR or intracranial PR to progressive disease or death, and is only applicable to the patients whose intracranial lesions achieve response.
# "TTR" is defined as the time from patient enrollment (first dose of investigational drug) to tumor response (CR/PR), based on the patients with objective response.
# "IC-TTR" is defined as the time from patient enrollment (first dose of investigational drug) to intracranial tumor response (IC-CR/PR), based on the patients with intracranial objective response.
# "PFS" is defined as the time from the first administration of the investigational drug to progressive disease (PD) or death from any cause, whichever comes first.
# In the indication expansion phase, an appropriate administration regimen was determined based on the safety, tolerability, PK and efficacy data from the dose escalation phase and dose expansion phase, and the expansion was performed within the target population.
# The result of a pregnancy test conducted ≤7 days prior to the first administration of the investigational drug must be negative for the women of childbearing age.
# [1] = A cohort 2, prior 3 or more second-generation ALK inhibitors, chemotherapy (N=11)
# [2] = A cohort 2, prior 3 or more second-generation ALK inhibitors, no chemotherapy (N=7)
# [3] = A cohort 2, prior one second-generation ALK inhibitor, chemotherapy (N=14)
# [4] = A cohort 2, prior one second-generation ALK inhibitor, no chemotherapy (N=26)
# [5] = A cohort 2, prior two second-generation ALK inhibitors, chemotherapy (N=15)
# [6] = A cohort 2, prior two second-generation ALK inhibitors, no chemotherapy (N=24)
# [7] = intracranial measurable lesions, Group A, cohort 1 (n=4)
# [8] = intracranial measurable lesions, Group A, cohort 2 (n=27)
# [9] = intracranial measurable lesions, Group C (n=8)
# [10] = intracranial measurable lesions, In total (ALK-positive) (n=52)
# [11] = systemic, Group A, cohort 1 (n=14)
# [12] = systemic, Group A, cohort 2 (n=97)
# [13] = systemic, In total (ALK-positive) (n=144)
smiles,measurement,setting,value
"[2H]C([2H])([2H])n1nc2c(c1C#N)-c1cnc(N)c(c1)O[C@H](C)c1cc(F)ccc1C(=O)N(C)C2 [compound A, (10R)-7-amino-12-fluoro-2-(methyl-d3)-10,16-dimethyl-15-oxo-10,15,16,17-tetrahydro-2H-8,4-(metheno)pyrazolo[4,3-h][2,5,11]benzoxadiazacyclotetradecine-3-carbonitrile]",ORR,14 patients previously received crizotinib with or without chemotherapy,71.4%
same,ORR,33 ALK TKI-treatment naive patients,84.8%
same,overall ORR,97 patients previously received a second-generation TKI,39.2%
same,BOR CR,[1],0 n (%)
same,BOR NE,[1],0 n (%)
same,BOR PD,[1],1 (9.1) n (%)
same,BOR PR,[1],3 (27.3) n (%)
same,BOR SD,[1],7 (63.6) n (%)
same,Confirmed ORR (95% CI),[1],"3 (27.3) (6.0, 61.0) n (%)"
same,DCR (95% CI),[1],"10 (90.9) (58.7, 99.8) n (%)"
same,Median TTR (range),[1],"1.35 (1.28, 7.00) months"
same,BOR CR,[2],0 n (%)
same,BOR NE,[2],1 (14.3) n (%)
same,BOR PD,[2],0 n (%)
same,BOR PR,[2],3 (42.9) n (%)
same,BOR SD,[2],3 (42.9) n (%)
same,Confirmed ORR (95% CI),[2],"3 (42.9) (9.9, 81.6) n (%)"
same,DCR (95% CI),[2],"6 (85.7) (42.1, 99.6) n (%)"
same,Median TTR (range),[2],"1.35 (1.35, 1.45) months"
same,BOR CR,[3],0 n (%)
same,BOR NE,[3],1 (7.1) n (%)
same,BOR PD,[3],4 (28.6) n (%)
same,BOR PR,[3],6 (42.9) n (%)
same,BOR SD,[3],3 (21.4) n (%)
same,Confirmed ORR (95% CI),[3],"6 (42.9) (17.7, 71.1) n (%)"
same,DCR (95% CI),[3],"9 (64.3) (35.1, 87.2) n (%)"
same,Median TTR (range),[3],"2.07 (1.35, 6.90) months"
same,BOR CR,[4],0 n (%)
same,BOR NE,[4],0 n (%)
same,BOR PD,[4],6 (23.1) n (%)
same,BOR PR,[4],9 (34.6) n (%)
same,BOR SD,[4],11 (42.3) n (%)
same,Confirmed ORR (95% CI),[4],"9 (34.6) (17.2, 55.7) n (%)"
same,DCR (95% CI),[4],"20 (76.9) (56.4, 91.0) n (%)"
same,Median TTR (range),[4],"1.38 (1.28, 6.80) months"
same,BOR CR,[5],0 n (%)
same,BOR NE,[5],0 n (%)
same,BOR PD,[5],2 (13.3) n (%)
same,BOR PR,[5],6 (40.0) n (%)
same,BOR SD,[5],7 (46.7) n (%)
same,Confirmed ORR (95% CI),[5],"6 (40.0) (16.3, 67.7) n (%)"
same,DCR (95% CI),[5],"13 (86.7) (59.5, 98.3) n (%)"
same,Median DOR (95% CI),[5],"12.45 (5.39, -) months"
same,Median TTR (range),[5],"1.40 (1.31, 2.79) months"
same,BOR CR,[6],0 n (%)
same,BOR NE,[6],0 n (%)
same,BOR PD,[6],3 (12.5) n (%)
same,BOR PR,[6],11 (45.8) n (%)
same,BOR SD,[6],10 (41.7) n (%)
same,Confirmed ORR (95% CI),[6],"11 (45.8) (25.6, 67.2) n (%)"
same,DCR (95% CI),[6],"21 (87.5) (67.6, 97.3) n (%)"
same,Median DOR (95% CI),[6],"12.48 (2.76, -) months"
same,Median TTR (range),[6],"1.38 (1.35, 9.72) months"
same,intracranial ORR,"ALK TKI-naive, 8 patients with measurable CNS lesions at baseline",75%
same,median PFS,"cohort 2 of group A, FAS, as of April 17, 2024",6.87 months
same,BOR CR,[7],1 n (%) and 1 (25.0) n (%)
same,BOR NE,[7],0 n (%)
same,BOR PD,[7],0 n (%)
same,BOR PR,[7],1 n (%) and 1 (25.0) n (%)
same,BOR SD,[7],2 (50.0) n (%)
same,Confirmed ORR (95% CI),[7],"2 (50.0) (6.8, 93.2) n (%)"
same,DCR (95% CI),[7],"4 (100) (39.8, 100.0) n (%)"
same,Median DOR (95% CI),[7],"not reached; also recorded: NR (NR, NR)"
same,Median TTR (range),[7],"1.36 months and 1.36 (1.35, 1.38) months"
same,BOR CR,[8],5 n (%) and 5 (18.5) n (%)
same,BOR NE,[8],1 (3.7) n (%)
same,BOR PD,[8],0 n (%)
same,BOR PR,[8],14 n (%) and 14 (51.9) n (%)
same,BOR SD,[8],7 (25.9) n (%)
same,Confirmed ORR (95% CI),[8],"19 (70.4) (49.8, 86.2) n (%)"
same,DCR (95% CI),[8],"26 (96.3) (81.0, 99.9) n (%)"
same,Median DOR (95% CI),[8],"17.97 months and 17.97 (6.64, NR) months"
same,Median TTR (range),[8],"1.41 months and 1.41 (1.31, 9.72) months"
same,BOR CR,[9],0 n (%)
same,BOR NE,[9],0 n (%)
same,BOR PD,[9],0 n (%)
same,BOR PR,[9],6 n (%) and 6 (75.0) n (%)
same,BOR SD,[9],2 (25.0) n (%)
same,Confirmed ORR (95% CI),[9],"6 (75.0) (34.9, 96.8) n (%)"
same,DCR (95% CI),[9],"8 (100) (63.1, 100) n (%)"
same,Median DOR (95% CI),[9],"not reached; also recorded: NR (4.17, NR)"
same,Median TTR (range),[9],"1.41 months and 1.41 (1.35, 1.45) months"
same,BOR CR,[10],6 (11.5) n (%)
same,BOR NE,[10],2 (3.8) n (%)
same,BOR PD,[10],1 (1.9) n (%)
same,BOR PR,[10],24 (46.2) n (%)
same,BOR SD,[10],19 (36.5) n (%)
same,Confirmed ORR (95% CI),[10],"30 (57.7) (43.2, 71.3) n (%)"
same,DCR (95% CI),[10],"49 (94.2) (84.1, 98.8) n (%)"
same,Median DOR (95% CI),[10],"17.97 (17.97, -) months"
same,Median TTR (range),[10],"1.40 (1.31, 9.72) months"
same,intracranial ORR,"prior crizotinib, four patients with measurable CNS lesions at baseline",50.0%
same,IC-ORR,"prior second-generation TKI, 27 patients with measurable CNS lesions at baseline",70.4%
same,BOR CR,[11],0 n (%)
same,BOR NE,[11],0 n (%)
same,BOR PD,[11],0 n (%)
same,BOR PR,[11],10 n (%) and 10 (71.4) n (%)
same,BOR SD,[11],4 n (%) and 4 (28.6) n (%)
same,Confirmed ORR (95% CI),[11],"10 (71.4) (41.9, 91.6) n (%)"
same,DCR (95% CI),[11],"14 (100) (76.8, 100.0) n (%)"
same,Median DOR (95% CI),[11],"not reached; also recorded: NR (5.585, NR)"
same,Median TTR (range),[11],"2.71 months and 2.71 (1.25, 9.66) months"
same,BOR CR,[12],0 n (%)
same,BOR NE,[12],2 (2.1) n (%)
same,BOR PD,[12],16 (16.5) n (%)
same,BOR PR,[12],38 (39.2) n (%)
same,BOR SD,[12],41 (42.3) n (%)
same,Confirmed ORR (95% CI),[12],"38 (39.2) (29.4, 49.6) n (%)"
same,DCR (95% CI),[12],"79 (81.4) (72.3, 88.6) n (%)"
same,Median DOR (95% CI),[12],"12.48 months and 12.48 (12.45, NR) months"
same,Median TTR (range),[12],"1.38 months and 1.38 (1.28, 9.72) months"
same,BOR CR,"systemic, Group C (n=33)",0 n (%)
same,BOR NE,"systemic, Group C (n=33)",0 n (%)
same,BOR PD,"systemic, Group C (n=33)",1 (3.0) n (%)
same,BOR PR,"systemic, Group C (n=33)",28 n (%) and 28 (84.8) n (%)
same,BOR SD,"systemic, Group C (n=33)",4 n (%) and 4 (12.1) n (%)
same,Confirmed ORR (95% CI),"systemic, Group C (n=33)","28 (84.8) (68.1, 94.9) n (%)"
same,DCR (95% CI),"systemic, Group C (n=33)","32 (97.0) (84.2, 99.9) n (%)"
same,Median DOR (95% CI),"systemic, Group C (n=33)","not reached; also recorded: NR (9.69, NR)"
same,Median TTR (range),"systemic, Group C (n=33)","1.35 months and 1.35 (1.12, 4.21) months"
same,BOR CR,[13],0 n (%)
same,BOR NE,[13],5 (2.9) n (%)
same,BOR PD,[13],21 (12.3) n (%)
same,BOR PR,[13],84 (49.1) n (%)
same,BOR SD,[13],61 (35.7) n (%)
same,Confirmed ORR (95% CI),[13],"84 (49.1) (41.4, 56.9) n (%)"
same,DCR (95% CI),[13],"145 (84.8) (78.5, 89.8) n (%)"
same,Median DOR (95% CI),[13],"12.48 (12.45, -) months"
same,Median TTR (range),[13],"1.38 (1.12, 13.96) months"
